Earlier results on 1 molecule are cited in patent US20020068684A1, “Stripping and cleaning compositions” (priority 1999, published 2002).

The structures appear in SMILES notation.

For this series the following is noted: from CRC tables.

On to `Oc1ccccc1O` [Catechol], for which the PKa is on record as 9.85.
